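Method: 48-hour compound exposure of cells in 96-well plates, five concentrations, linear interpolation of endpoints. Here, GI50 denotes the concentration required for 50% inhibition of growth.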 The source made the active and inactive calls. Cut-off read from the data, not from the text of the source: active = GI50 up to about 1.1 µM and inactive = higher.
Assays:
Experiment in all cases: growth of human tumour cells (NCI), 48 h
[1] = test system: A549
[2] = test system: CCRF-CEM
[3] = test system: HCT-116
[4] = test system: HCT-15
[5] = test system: HL-60
[6] = test system: MDA-MB-231
[7] = test system: NCI-H23
[8] = test system: NCI-H460
[9] = test system: NCI/ADR-RES
[10] = test system: RPMI-8226
[11] = test system: SF-295
[12] = test system: SK-MEL-2
[13] = test system: SK-MEL-5
[14] = test system: SR
[15] = test system: T47D
[16] = test system: UACC-257
[17] = test system: OVCAR-4
[18] = test system: NCI-H226

Compound | GI50 [1] | GI50 [2] | GI50 [3] | GI50 [4] [µM] | GI50 [5] | GI50 [6] | GI50 [7] | GI50 [8] | GI50 [9] | GI50 [10] | GI50 [11] | GI50 [12] | GI50 [13] | GI50 [14] | GI50 [15] | GI50 [16] | GI50 [17] | GI50 [18]
Cc1oc2c(cc(O)c3cc(O)ccc32)c2cccc1-2 | > 100 µM (inactive) | 43.5 µM (inactive) | > 100 µM (inactive) | > 100 | > 100 µM (inactive) | > 100 µM (inactive) | > 100 µM (inactive) | > 100 µM (inactive) | > 100 µM (inactive) | > 100 µM (inactive) | > 100 µM (inactive) | > 100 µM (inactive) | > 100 µM (inactive) | 37 µM (inactive) | 42.1 µM (inactive) | > 100 µM (inactive) | – | –
CC(C)(C)[Si](C)(C)OC1/C(=C/C#N)C(n2ccc(=O)[nH]c2=O)OC1CO (centres undefined) | > 100 µM (inactive) | – | > 100 µM (inactive) | – | – | > 100 µM (inactive) | > 100 µM (inactive) | > 100 µM (inactive) | > 100 µM (inactive) | – | > 100 µM (inactive) | > 100 µM (inactive) | > 100 µM (inactive) | 42.1 µM (inactive) | > 100 µM (inactive) | – | > 100 µM (inactive) | –
CC(=O)c1c2c(cc3c1CC1(Cc4cc5c(cc4C1)CCCC5)C3)CCCC2 | > 100 µM (inactive) | – | > 100 µM (inactive) | 36.1 | 7.85 µM (inactive) | > 100 µM (inactive) | 68.5 µM (inactive) | – | > 100 µM (inactive) | 11.8 µM (inactive) | 37.2 µM (inactive) | 18.8 µM (inactive) | 10.3 µM (inactive) | 2.05 µM (inactive) | > 100 µM (inactive) | 13 µM (inactive) | 8.39 µM (inactive) | 43.5 µM (inactive)
O=C(/C=C/c1cccc(Oc2ccccc2)c1)NCc1ccc(C(=O)NCc2ccccc2)cc1 | > 100 µM (inactive) | > 100 µM (inactive) | 50.6 µM (inactive) | > 100 | – | 52.2 µM (inactive) | 31 µM (inactive) | > 100 µM (inactive) | 35.3 µM (inactive) | > 100 µM (inactive) | 21.8 µM (inactive) | 26 µM (inactive) | > 100 µM (inactive) | > 100 µM (inactive) | > 100 µM (inactive) | > 100 µM (inactive) | 31 µM (inactive) | 27.5 µM (inactive)
N#CC1(c2ccccc2)CCN(C2(c3ccccc3)CCCCC2)CC1 | > 100 µM (inactive) | > 100 µM (inactive) | > 100 µM (inactive) | > 100 | > 100 µM (inactive) | > 100 µM (inactive) | > 100 µM (inactive) | – | > 100 µM (inactive) | > 100 µM (inactive) | > 100 µM (inactive) | > 100 µM (inactive) | > 100 µM (inactive) | > 100 µM (inactive) | > 100 µM (inactive) | > 100 µM (inactive) | > 100 µM (inactive) | > 100 µM (inactive)
CC(Cc1cccc2c1Nc1ccccc1S2)N(C)CCO (centres undefined) | > 100 µM (inactive) | > 100 µM (inactive) | > 100 µM (inactive) | > 100 | > 100 µM (inactive) | > 100 µM (inactive) | > 100 µM (inactive) | > 100 µM (inactive) | > 100 µM (inactive) | – | > 100 µM (inactive) | – | > 100 µM (inactive) | > 100 µM (inactive) | > 100 µM (inactive) | > 100 µM (inactive) | > 100 µM (inactive) | > 100 µM (inactive)
O=C1C(Cl)=C(N2CCN(c3ccccn3)CC2)C(=O)c2c(O)ccc(O)c21 | 6.49 µM (inactive) | 0.37 µM (active) | 1.7 µM (inactive) | 1.12 | 0.128 µM (active) | 1.74 µM (inactive) | 1.18 µM (inactive) | 3.07 µM (inactive) | 2.38 µM (inactive) | 0.394 µM (active) | 3.78 µM (inactive) | – | 1.42 µM (inactive) | 0.881 µM (active) | 1.3 µM (inactive) | 1.84 µM (inactive) | 1.59 µM (inactive) | 4.69 µM (inactive)
OCC1OC(O)C(/N=C\c2ccc3c(c2)OCO3)C(O)C1O (centres undefined) | > 100 µM (inactive) | – | > 100 µM (inactive) | > 100 | > 100 µM (inactive) | > 100 µM (inactive) | > 100 µM (inactive) | > 100 µM (inactive) | > 100 µM (inactive) | > 100 µM (inactive) | > 100 µM (inactive) | > 100 µM (inactive) | > 100 µM (inactive) | > 100 µM (inactive) | > 100 µM (inactive) | > 100 µM (inactive) | > 100 µM (inactive) | > 100 µM (inactive)
O=C(COc1ccc(OCC(=O)N2C(=O)CN(c3ccccc3)C2=S)cc1)N1C(=O)CN(c2ccccc2)C1=S | > 56.1 µM (inactive) | – | > 61.4 µM (inactive) | > 54.1 | > 100 µM (inactive) | > 50.1 µM (inactive) | > 56.9 µM (inactive) | > 57.7 µM (inactive) | > 55.7 µM (inactive) | > 100 µM (inactive) | > 53 µM (inactive) | > 51.4 µM (inactive) | > 25 µM (inactive) | > 25 µM (inactive) | > 58.3 µM (inactive) | > 54.7 µM (inactive) | 31.5 µM (inactive) | > 100 µM (inactive)
CN(C)c1ccc(/C=c2/c3ccccc3n3nc4ccccc4c23)cc1 | 16.3 µM (inactive) | 7.98 µM (inactive) | 16.8 µM (inactive) | 8.32 | 21.2 µM (inactive) | 47 µM (inactive) | 95.7 µM (inactive) | 30.1 µM (inactive) | 11.1 µM (inactive) | 10.7 µM (inactive) | 13.2 µM (inactive) | 23.4 µM (inactive) | 8.73 µM (inactive) | 3.34 µM (inactive) | 6.47 µM (inactive) | 56 µM (inactive) | – | –
COc1ccc2c(c1)C1Oc3ccccc3CC1CO2 (centres undefined) | 55.3 µM (inactive) | > 100 µM (inactive) | 44.7 µM (inactive) | 34.1 | 21.2 µM (inactive) | 16.8 µM (inactive) | > 100 µM (inactive) | 96.8 µM (inactive) | 42.1 µM (inactive) | 25.6 µM (inactive) | 76.4 µM (inactive) | 21.5 µM (inactive) | 32.6 µM (inactive) | – | 26.2 µM (inactive) | 35.9 µM (inactive) | 43.9 µM (inactive) | > 100 µM (inactive)
CN1CCCOC(c2ccc(Cl)cc2)O1 (centres undefined) | > 100 µM (inactive) | > 100 µM (inactive) | > 100 µM (inactive) | > 100 | – | > 100 µM (inactive) | > 100 µM (inactive) | > 100 µM (inactive) | > 100 µM (inactive) | – | > 100 µM (inactive) | > 100 µM (inactive) | > 100 µM (inactive) | > 100 µM (inactive) | > 100 µM (inactive) | > 100 µM (inactive) | > 100 µM (inactive) | > 100 µM (inactive)
C=CC(=O)Nc1ccc(NC(=O)C=C)c2c1C(=O)c1ccccc1C2=O | > 100 µM (inactive) | – | 62.8 µM (inactive) | 41.9 | 3.86 µM (inactive) | 97.7 µM (inactive) | 48.6 µM (inactive) | > 100 µM (inactive) | > 100 µM (inactive) | 3.03 µM (inactive) | 10.8 µM (inactive) | 69.3 µM (inactive) | 60.1 µM (inactive) | 28.1 µM (inactive) | > 100 µM (inactive) | > 100 µM (inactive) | – | –
